Laboratory results taken from ChEMBL document CHEMBL4002599, “Structure-based design and synthesis of imidazo[1,2-a]pyridine derivatives as novel and potent Nek2 inhibitors with in vitro and in vivo antitumor activities” (Eur J Med Chem, 2017).

Legend:
MGC-803 = assay: Cytotoxicity against human MGC803 cells measured after 72 hrs by MTT assay; type: functional, cell-based; settings: MGC-803, 72 h
[1] = biological target: T1, Serine/threonine-protein kinase Nek2 (Homo sapiens, UniProt P51955); assay: Inhibition of N-terminal His6-tagged full-length recombinant human NEK2 expressed in baculovirus infected sf21 cells using biotin labelled-STK-3 substrate measured after 60 mins by HTRF assay
T1 sequence (P51955 whole entry): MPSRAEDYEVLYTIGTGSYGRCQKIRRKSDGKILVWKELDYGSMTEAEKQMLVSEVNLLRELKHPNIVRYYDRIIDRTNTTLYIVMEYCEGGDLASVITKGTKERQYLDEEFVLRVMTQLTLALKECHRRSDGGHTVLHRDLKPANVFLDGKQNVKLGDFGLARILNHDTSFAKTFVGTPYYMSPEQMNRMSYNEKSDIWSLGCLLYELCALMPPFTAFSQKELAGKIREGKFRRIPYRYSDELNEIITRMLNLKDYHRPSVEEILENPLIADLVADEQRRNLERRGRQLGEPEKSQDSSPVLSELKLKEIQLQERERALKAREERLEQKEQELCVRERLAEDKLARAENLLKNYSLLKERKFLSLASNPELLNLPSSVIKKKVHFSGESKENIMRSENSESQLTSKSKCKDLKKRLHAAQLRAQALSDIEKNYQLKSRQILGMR

Aurora kinase A = biological target: T2, Aurora kinase A (Homo sapiens, UniProt O14965); assay: Inhibition of Aurora A (unknown origin)
T2 sequence (O14965 whole entry): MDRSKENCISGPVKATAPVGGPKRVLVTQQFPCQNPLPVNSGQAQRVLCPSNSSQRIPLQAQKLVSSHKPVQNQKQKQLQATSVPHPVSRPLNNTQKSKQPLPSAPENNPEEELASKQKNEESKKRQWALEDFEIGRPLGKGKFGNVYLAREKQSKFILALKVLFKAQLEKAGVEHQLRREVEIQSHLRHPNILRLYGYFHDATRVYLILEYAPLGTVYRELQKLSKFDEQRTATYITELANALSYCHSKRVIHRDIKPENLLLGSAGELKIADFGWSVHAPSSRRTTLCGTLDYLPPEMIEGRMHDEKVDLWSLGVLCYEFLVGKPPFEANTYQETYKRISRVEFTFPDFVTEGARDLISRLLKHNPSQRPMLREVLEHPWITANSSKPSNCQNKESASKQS

[2] = MRT (0 to t) in Sprague-Dawley rat at 1 mg/kg, iv administered as bolus dose by LC-MS/MS method; type: ADME, organism-based; settings: in vivo
[3] = Half-life in Sprague-Dawley rat at 1 mg/kg, iv administered as bolus dose by LC-MS/MS method; type: ADME, organism-based; settings: in vivo
Bel-7402 = assay: Cytotoxicity against human Bel7402 cells measured after 72 hrs by MTT assay; type: functional, cell-based; settings: Bel-7402, 72 h
HCT-116 = assay: Cytotoxicity against human HCT116 cells measured after 72 hrs by MTT assay; type: functional, cell-based; settings: HCT-116, 72 h
[4] = Volume of distribution at steady state in Sprague-Dawley rat at 1 mg/kg, iv administered as bolus dose by LC-MS/MS method; type: ADME, organism-based; settings: in vivo, read-out: Vdss
Rattus norvegicus [5] = assay: AUC (0 to infinity) in Sprague-Dawley rat at 1 mg/kg, iv administered as bolus dose by LC-MS/MS method; type: ADME, organism-based; parameters: dose 1 mg/kg, time infinity, route intravenous; settings: in vivo
[6] = Clearance in Sprague-Dawley rat at 1 mg/kg, iv administered as bolus dose by LC-MS/MS method; type: ADME, organism-based; settings: in vivo
Rattus norvegicus [7] = assay: AUC (0 to t) in Sprague-Dawley rat at 1 mg/kg, iv administered as bolus dose by LC-MS/MS method; type: ADME, organism-based; settings: in vivo

| Structure (SMILES) | IC50 (MGC-803) | IC50 [1] | further results |
| --- | --- | --- | --- |
| CN1CCN(c2ccn3c(-c4ccc(C(N)=O)c(OCc5ccccc5)c4)cnc3c2)CC1 | 6.21 µM | 3.21 µM | – |
| CNC(=O)c1ccc(-c2cnc3cc(N4CCN(C)CC4)ccn23)cc1OC(C)c1ccccc1C(F)(F)F (centres undefined) | – | 197 µM | – |
| CN1CCN(c2ccn3c(-c4ccc(C(=O)NO)c(OCc5ccccc5C(F)(F)F)c4)cnc3c2)CC1 | 17.1 µM | 10 µM | – |
| CN(C)CCn1cc(-c2ccn3c(-c4ccc(C(N)=O)c(OCc5cccc(C(F)(F)F)c5)c4)cnc3c2)cn1 | 0.79 to 0.8 µM | 0.007 µM | IC50 (Aurora kinase A): > 10 µM; MRT last [2]: 1.38 h; half-life [3]: 1.49 h; IC50 (Bel-7402): 2.78 µM; IC50 (HCT-116): 1.29 µM; Vd [4]: 5.08 L/kg; AUC (Rattus norvegicus [5]): 268 ng·h/mL; clearance [6]: 62.8 mL/min/kg; AUCt (Rattus norvegicus [7]): 262 ng·h/mL |
| C[C@@H](Oc1cc(-c2cnc3cc(N4CCN(C)CC4)ccn23)ccc1C(N)=O)c1ccccc1C(F)(F)F | 3.16 µM | 1.19 µM | – |
| COC(=O)c1ccc(-c2cnc3cc(N4CCN(C)CC4)ccn23)cc1OC(C)c1ccccc1C(F)(F)F (centres undefined) | – | 42.6 µM | – |
